Data from ChEMBL document CHEMBL1201861, “Genomics of Drug Sensitity in Cancer screening data, Wellcome Trust Sanger Institute”.

Experiments:
Test in all cases: cells
Capan-2 = format: functional, cell-based, Homo sapiens; conditions: Homo sapiens, Capan-2;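 further: Capan-2 cell growth inhibition, read out with a viability assay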
Description: SANGER: Inhibition of human Capan-2 cell growth in a cell viability assay.

Detroit 562 = format: functional, cell-based, Homo sapiens; conditions: Homo sapiens, Detroit 562;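 further: growth inhibition of human Detroit 562 cells, read out by a cell viability assay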
Description: SANGER: Inhibition of human Detroit562 cell growth in a cell viability assay.

ES3 = format: functional, cell-based, Homo sapiens; conditions: Homo sapiens, ES3;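 further: growth inhibition of ES3 cells, read out with a cell viability assay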
Description: SANGER: Inhibition of human ES3 cell growth in a cell viability assay.

ES5 = format: functional, cell-based, Homo sapiens; conditions: Homo sapiens, ES5;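 further: growth inhibition of human ES5 cells, read out by a cell viability assay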
Description: SANGER: Inhibition of human ES5 cell growth in a cell viability assay.

FTC-133 = format: functional, cell-based, Homo sapiens; conditions: Homo sapiens, FTC-133
GAK = format: functional, cell-based, Homo sapiens; conditions: Homo sapiens, GAK;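 further: cell growth inhibition read out by a cell viability assay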
Description: SANGER: Inhibition of human GAK cell growth in a cell viability assay.

JAR = format: functional, cell-based, Homo sapiens; conditions: Homo sapiens, JAR;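 further: growth inhibition of human JAR cells determined with a cell viability assay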
Description: SANGER: Inhibition of human JAR cell growth in a cell viability assay.

K5 = format: functional, cell-based, Homo sapiens; conditions: Homo sapiens, K5
Description: SANGER: Inhibition of human K5 cell growth in a cell viability assay.

KALS-1 = format: functional, cell-based, Homo sapiens; conditions: Homo sapiens, KALS-1;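 further: growth inhibition of KALS-1 cells, determined with a cell viability assay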
Description: SANGER: Inhibition of human KALS-1 cell growth in a cell viability assay.

KE-37 = format: functional, cell-based; conditions: Homo sapiens;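 further: growth inhibition of KE-37 cells, read out with a cell viability assay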
Description: SANGER: Inhibition of human KE-37 cell growth in a cell viability assay.

KG-1 = format: functional, cell-based; conditions: Homo sapiens;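 further: growth inhibition of KG-1 cells, read out by a cell viability assay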
Description: SANGER: Inhibition of human KG-1 cell growth in a cell viability assay.

KGN = format: functional, cell-based, Homo sapiens; conditions: Homo sapiens, KGN;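 further: growth inhibition of KGN cells, read out with a cell viability assay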
Description: SANGER: Inhibition of human KGN cell growth in a cell viability assay.

KOSC-2 = format: functional, cell-based, Homo sapiens; conditions: Homo sapiens, KOSC-2;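 further: growth inhibition of KOSC-2 cells, read out by a cell viability assay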
Description: SANGER: Inhibition of human KOSC-2 cell growth in a cell viability assay.

KS-1 = format: functional, cell-based, Homo sapiens; conditions: Homo sapiens, KS-1;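 further: growth inhibition of KS-1 cells, read out with a cell viability assay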
Description: SANGER: Inhibition of human KS-1 cell growth in a cell viability assay.

KY821 = format: functional, cell-based; conditions: Homo sapiens;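 further: growth inhibition of human KY821 cells, read out by a cell viability assay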
Description: SANGER: Inhibition of human KY821 cell growth in a cell viability assay.

LB771-HNC = format: functional, cell-based, Homo sapiens; conditions: Homo sapiens, LB771-HNC;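 further: growth inhibition of LB771-HNC human cells, read out with a cell viability assay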
Description: SANGER: Inhibition of human LB771-HNC cell growth in a cell viability assay.

LNCaP-Clone-FGC = format: functional, cell-based, Homo sapiens; conditions: Homo sapiens, LNCaP-Clone-FGC
Description: SANGER: Inhibition of human LNCaP-Clone-FGC cell growth in a cell viability assay.

LS-123 = format: functional, cell-based, Homo sapiens; conditions: Homo sapiens, LS-123
Description: SANGER: Inhibition of human LS-123 cell growth in a cell viability assay.

MDA-MB-361 = format: functional, cell-based, Homo sapiens; conditions: Homo sapiens, MDA-MB-361
MDA-MB-453 = format: functional, cell-based, Homo sapiens; conditions: Homo sapiens, MDA-MB-453
Description: SANGER: Inhibition of human MDA-MB-453 cell growth in a cell viability assay.

MKN-28 = format: functional, cell-based, Homo sapiens; conditions: Homo sapiens, MKN-28;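 further: cell viability assay read-out, IC50 reflects suppression of growth of human MKN-28 cells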
Description: SANGER: Inhibition of human MKN28 cell growth in a cell viability assay.

MKN-45 = format: functional, cell-based, Homo sapiens; conditions: Homo sapiens, MKN-45;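 further: growth inhibition of human MKN-45 cells, measured with a cell viability assay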
Description: SANGER: Inhibition of human MKN45 cell growth in a cell viability assay.

MZ7-mel = format: functional, cell-based, Homo sapiens; conditions: Homo sapiens, MZ7-mel;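 further: growth inhibition of human MZ7-mel cells, measured by a cell viability assay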
Description: SANGER: Inhibition of human MZ7-mel cell growth in a cell viability assay.

NCI-H2170 = format: functional, cell-based, Homo sapiens; conditions: Homo sapiens, NCI-H2170;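 further: cell viability assay measuring growth inhibition of human NCI-H2170 cancer cells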
Description: SANGER: Inhibition of human NCI-H2170 cell growth in a cell viability assay.

NCI-H23 = format: functional, cell-based, Homo sapiens; conditions: Homo sapiens, NCI-H23;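 further: cell viability assay measuring growth inhibition of NCI-H23 cells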
Description: SANGER: Inhibition of human NCI-H23 cell growth in a cell viability assay.

NCI-H510A = format: functional, cell-based; conditions: Homo sapiens;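 further: growth inhibition of NCI-H510A cells, read out with a cell viability assay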
Description: SANGER: Inhibition of human NCI-H510A cell growth in a cell viability assay.

NCI-H747 = format: functional, cell-based; conditions: Homo sapiens;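 further: growth inhibition of human NCI-H747 cells, read out by a cell viability assay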
Description: SANGER: Inhibition of human NCI-H747 cell growth in a cell viability assay.

NKM-1 = format: functional, cell-based; conditions: Homo sapiens;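 further: growth inhibition of NKM-1 cells, read out with a cell viability assay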
Description: SANGER: Inhibition of human NKM-1 cell growth in a cell viability assay.

NOMO-1 = format: functional, cell-based; conditions: Homo sapiens;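 further: growth inhibition of human NOMO-1 cells measured by a cell viability assay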
Description: SANGER: Inhibition of human NOMO-1 cell growth in a cell viability assay.

ONS-76 = format: functional, cell-based, Homo sapiens; conditions: Homo sapiens, ONS-76;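 further: growth inhibition of human ONS-76 cells, read out with a cell viability assay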
Description: SANGER: Inhibition of human ONS-76 cell growth in a cell viability assay.

P12-Ichikawa = format: functional, cell-based; conditions: Homo sapiens
PC-14 = format: functional, cell-based, Homo sapiens; conditions: Homo sapiens, PC-14;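 further: cell viability assay measuring inhibition of PC-14 cell growth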
Description: SANGER: Inhibition of human PC-14 cell growth in a cell viability assay.

RH-1 = format: functional, cell-based, Homo sapiens; conditions: Homo sapiens, RH-1;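 further: growth inhibition of human RH-1 cells, read out with a cell viability assay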
Description: SANGER: Inhibition of human RH-1 cell growth in a cell viability assay.

RKO = format: functional, cell-based, Homo sapiens; conditions: Homo sapiens, RKO;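 further: growth inhibition of human RKO cells, read out with a cell viability assay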
Description: SANGER: Inhibition of human RKO cell growth in a cell viability assay.

RPMI-7951 = format: functional, cell-based, Homo sapiens; conditions: Homo sapiens, RPMI-7951
Description: SANGER: Inhibition of human RPMI-7951 cell growth in a cell viability assay.

RT-112 = format: functional, cell-based, Homo sapiens; conditions: Homo sapiens, RT-112
Description: SANGER: Inhibition of human RT-112 cell growth in a cell viability assay.

RXF 393 = format: functional, cell-based; conditions: Homo sapiens;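 further: growth inhibition of human RXF 393 cells, read out with a cell viability assay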
Description: SANGER: Inhibition of human RXF393 cell growth in a cell viability assay.

SAS = format: functional, cell-based, Homo sapiens; conditions: Homo sapiens, SAS;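 further: growth inhibition of SAS cells, read out with a cell viability assay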
Description: SANGER: Inhibition of human SAS cell growth in a cell viability assay.

SCC-25 = format: functional, cell-based, Homo sapiens; conditions: Homo sapiens, SCC-25;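 further: growth inhibition of SCC-25 cells, measured with a cell viability assay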
Description: SANGER: Inhibition of human SCC-25 cell growth in a cell viability assay.

SCC-9 = format: functional, cell-based, Homo sapiens; conditions: Homo sapiens, SCC-9;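 further: Read-out is a cell viability assay, with values giving inhibition of cell growth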
Description: SANGER: Inhibition of human SCC-9 cell growth in a cell viability assay.

SF-268 = format: functional, cell-based, Homo sapiens; conditions: Homo sapiens, SF-268;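 further: growth inhibition of SF-268 cells determined with a cell viability assay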
Description: SANGER: Inhibition of human SF268 cell growth in a cell viability assay.

SW780 = format: functional, cell-based, Homo sapiens; conditions: Homo sapiens, SW780;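 further: growth inhibition of the cells, read out with a cell viability assay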
Description: SANGER: Inhibition of human SW780 cell growth in a cell viability assay.

T47D = format: functional, cell-based, Homo sapiens; conditions: Homo sapiens, T47D;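 further: growth inhibition of human T47D cells, measured with a cell viability assay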
Description: SANGER: Inhibition of human T47D cell growth in a cell viability assay.

A 172 = format: functional, cell-based, Homo sapiens; conditions: Homo sapiens, A 172;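 further: growth inhibition of A172 cells, measured with a cell viability readout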
Description: SANGER: Inhibition of human A172 cell growth in a cell viability assay.

AM-38 = format: functional, cell-based, Homo sapiens; conditions: Homo sapiens, AM-38;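 further: growth inhibition of AM-38 cells of human origin, read out by a cell viability assay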
Description: SANGER: Inhibition of human AM-38 cell growth in a cell viability assay.

BHT-101 = format: functional, cell-based, Homo sapiens; conditions: Homo sapiens, BHT-101
Description: SANGER: Inhibition of human BHT-101 cell growth in a cell viability assay.

BHY = format: functional, cell-based, Homo sapiens; conditions: Homo sapiens, BHY;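 further: cell growth inhibition read out by a viability assay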
Description: SANGER: Inhibition of human BHY cell growth in a cell viability assay.

CAL-85-1 = format: functional, cell-based; conditions: Homo sapiens;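 further: growth inhibition of human CAL-85-1 cells, read out with a cell viability assay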
Description: SANGER: Inhibition of human CAL-85-1 cell growth in a cell viability assay.

TE-10 = format: functional, cell-based, Homo sapiens; conditions: Homo sapiens, TE-10;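 further: growth inhibition of TE-10 cells, measured by a cell viability assay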
Description: SANGER: Inhibition of human TE-10 cell growth in a cell viability assay.

VMRC-RCZ = format: functional, cell-based; conditions: Homo sapiens;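 further: growth inhibition measured with a cell viability assay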
Description: SANGER: Inhibition of human VMRC-RCZ cell growth in a cell viability assay.

CAS-1 = format: functional, cell-based, Homo sapiens; conditions: Homo sapiens, CAS-1;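 further: growth inhibition of CAS-1 cells, measured with a cell viability assay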
Description: SANGER: Inhibition of human CAS-1 cell growth in a cell viability assay.

COLO-678 = format: functional, cell-based, Homo sapiens; conditions: Homo sapiens, COLO-678
Description: SANGER: Inhibition of human COLO-678 cell growth in a cell viability assay.

Measured: IC50

C=CCc1cccc(/C=N/NC(=O)CN2CCN(Cc3ccccc3)CC2)c1O [PAC-1]
2150 nM: KGN
215 nM: KE-37
2560 nM: MZ7-mel
> 2560 nM: Capan-2 | Detroit 562 | ES3 | ES5 | FTC-133 | GAK | JAR | K5 | KALS-1 | KG-1 | KOSC-2 | KS-1 | KY821 | LB771-HNC | LNCaP-Clone-FGC | LS-123 | MDA-MB-361 | MDA-MB-453 | MKN-28 | MKN-45 | NCI-H2170 | NCI-H23 | NCI-H510A | NCI-H747 | NKM-1 | NOMO-1 | ONS-76 | P12-Ichikawa | PC-14 | RH-1 | RKO | RPMI-7951 | RT-112 | RXF 393 | SAS | SCC-25 | SCC-9 | SF-268 | SW780 | T47D | A 172 | AM-38 | BHT-101 | BHY | CAL-85-1 | TE-10 | VMRC-RCZ | CAS-1 | COLO-678

CN(c1ncccc1CNc1nc(Nc2ccc3c(c2)CC(=O)N3)ncc1C(F)(F)F)S(C)(=O)=O [PF-00562271]
> 2560 nM: Capan-2 | ES3 | ES5 | FTC-133 | GAK | JAR | K5 | KALS-1 | KE-37 | KG-1 | KGN | KOSC-2 | KS-1 | KY821 | LB771-HNC | LNCaP-Clone-FGC | LS-123 | MDA-MB-361 | MDA-MB-453 | MKN-28 | MKN-45 | MZ7-mel | NCI-H2170 | NCI-H23 | NCI-H510A | NCI-H747 | NOMO-1 | ONS-76 | P12-Ichikawa | PC-14 | RH-1 | RKO | RPMI-7951 | RXF 393 | SAS | SCC-25 | SCC-9 | SF-268 | SW780 | T47D | A 172 | AM-38 | BHT-101 | TE-10 | VMRC-RCZ | CAS-1 | COLO-678
1800 nM: CAL-85-1
1280 nM: NKM-1
985 nM: RT-112
1350 nM: Detroit 562
1660 nM: BHY

Cn1cncc1[C@@](N)(c1ccc(Cl)cc1)c1ccc2c(c1)c(-c1cccc(Cl)c1)cc(=O)n2C [TIPIFARNIB]
452 nM: KGN
11800 nM: ES3
8070 nM: SF-268
3800 nM: GAK
8390 nM: NCI-H2170
382 nM: RT-112
11500 nM: LNCaP-Clone-FGC
13500 nM: RPMI-7951
5910 nM: SCC-25
722 nM: MZ7-mel
1250 nM: CAL-85-1
774 nM: NKM-1
10400 nM: P12-Ichikawa
2750 nM: RH-1
1230 nM: RKO
1130 nM: LB771-HNC
3180 nM: VMRC-RCZ
> 16000 nM: ES5 | FTC-133 | JAR | K5 | KALS-1 | KOSC-2 | KY821 | MDA-MB-453 | NCI-H23 | NCI-H510A | NOMO-1 | PC-14 | RXF 393 | SAS | SCC-9 | SW780 | T47D | AM-38 | CAS-1 | COLO-678
3090 nM: BHT-101
2660 nM: NCI-H747
1050 nM: BHY
2110 nM: LS-123 | MDA-MB-361
1470 nM: ONS-76
2320 nM: KE-37
10100 nM: A 172
2790 nM: MKN-45
3060 nM: KG-1
10600 nM: Capan-2
812 nM: TE-10
1440 nM: MKN-28
4070 nM: Detroit 562
770 nM: KS-1
